In data set [1] the target is T1, Cannabinoid receptor 1 (Homo sapiens, UniProt P21554). The data set is described as follows: Allosteric modulation of CB1 receptor (unknown origin) assessed as inhibition of CP55940-induced [35S]GTPgammaS binding. In kind it is functional. A general note: GTPγS is a poorly hydrolysed GTP analogue; its binding reports G protein activation.
The next data set deals with Rattus norvegicus. The data set is described as follows: Reduction in cocaine-induced reinstatement of cocaine seeking behavior in Sprague-Dawley rat at 10 mg/kg. It is filed as functional, organism-based.
Data set [2] is described as follows: Half life in Sprague-Dawley rat. It is filed as ADME. As to conditions: in vivo.
The target in data set [3] is T1, Cannabinoid receptor 1. The data set is described as follows: Agonist activity at CB1 receptor (unknown origin) relative to CP55940.

The source made the active and inactive calls.

T1 sequence (P21554 whole entry): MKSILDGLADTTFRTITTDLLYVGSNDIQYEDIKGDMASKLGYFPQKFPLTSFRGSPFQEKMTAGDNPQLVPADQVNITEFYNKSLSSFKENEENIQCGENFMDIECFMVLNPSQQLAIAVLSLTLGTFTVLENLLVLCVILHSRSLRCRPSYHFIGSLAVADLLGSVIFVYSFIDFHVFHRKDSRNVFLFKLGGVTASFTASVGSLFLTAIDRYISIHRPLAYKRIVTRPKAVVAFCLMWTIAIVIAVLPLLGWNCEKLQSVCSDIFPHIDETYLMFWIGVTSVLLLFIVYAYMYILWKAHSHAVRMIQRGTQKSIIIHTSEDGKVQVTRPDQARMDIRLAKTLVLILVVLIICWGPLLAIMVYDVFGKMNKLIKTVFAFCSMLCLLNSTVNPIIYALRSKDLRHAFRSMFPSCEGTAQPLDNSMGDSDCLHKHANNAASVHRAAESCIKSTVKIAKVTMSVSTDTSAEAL

For `O=C(Nc1ccc(Cl)cc1)Nc1cccc(-c2ccoc2)c1`, the IC50 at Cannabinoid receptor 1 [1] was determined as 440 nM.

As to `O=C(Nc1ccc(Cl)cc1)Nc1cccc(-c2cc(Cl)cc(Cl)c2)c1`, the half-maximal inhibitory concentration (IC50) on Cannabinoid receptor 1 [1] worked out at 299 nM.

As for `O=C(Nc1ccc(Cl)cc1)Nc1cccc(-c2ccc(F)cc2)c1`, the outcome in the data set with Rattus norvegicus was Active. The compound further returned a half-life in data set [2] of 5 h. The 50% inhibitory concentration (IC50) on Cannabinoid receptor 1 [1] came out at 151 nM.

Turning to `O=C(Nc1ccc(Cl)cc1)Nc1cccc(-c2ccccc2)c1`, on Cannabinoid receptor 1 [1], the 50% inhibitory concentration (IC50) came to 437 nM.

As for `O=C(Nc1ccc(Cl)cc1)Nc1cccc(-c2cccc([N+](=O)[O-])c2)c1`, the half-inhibitory concentration (IC50) at Cannabinoid receptor 1 [1] was 452 nM.

With `O=C(Nc1ccc(Cl)cc1)Nc1cccc(-c2ccc(F)cc2F)c1`, at Cannabinoid receptor 1 [1], the half-inhibitory concentration (IC50) was determined as 353 nM.

For the compound `O=C(Nc1ccc(Cl)cc1)Nc1cccc(N2CCC2)c1`, the half-inhibitory concentration (IC50) on Cannabinoid receptor 1 [1] worked out at 1380 nM.

Compound `O=C(Nc1ccc(Cl)cc1)Nc1cccc(-c2ccsc2)c1` returned an Emax on Cannabinoid receptor 1 [3] of 28.9%. Also, the IC50 on Cannabinoid receptor 1 [1] stood at 164 nM.

Regarding `Cc1cc(-c2cccc(NC(=O)Nc3ccc(Cl)cc3)c2)cs1`, at Cannabinoid receptor 1 [3], the Emax stood at 3.7%. At Cannabinoid receptor 1 [1], the 50% inhibitory concentration (IC50) is 776 nM.

Turning to `O=C(Nc1ccc(Cl)cc1)Nc1cccc(-c2ccccn2)c1`, the 50% inhibitory concentration (IC50) at Cannabinoid receptor 1 [1] was 2650 nM.

`Cc1ccc(-c2cccc(NC(=O)Nc3ccc(Cl)cc3)c2)s1` yielded an Emax at Cannabinoid receptor 1 [3] of 4.6%. Also, the IC50 at Cannabinoid receptor 1 [1] came to 372 nM.

One may read the IC50 as the concentration needed to halve the response being measured. Usually half-life stands for the time needed for the level to fall by half in the phase considered. A lower half-life goes with rapid decline. For orientation: Emax means the maximal effect, on the per cent scale that the assay sets.
